Molecules are shown by their SMILES.

This experiment has as its target T1, human B1R (Homo sapiens, UniProt P46663).
T1 construct: expressed in transfected cells; host or cells: CHO K1 cells (Chinese Hamster Ovary), stably transfected
T1 sequence (P46663 1-353): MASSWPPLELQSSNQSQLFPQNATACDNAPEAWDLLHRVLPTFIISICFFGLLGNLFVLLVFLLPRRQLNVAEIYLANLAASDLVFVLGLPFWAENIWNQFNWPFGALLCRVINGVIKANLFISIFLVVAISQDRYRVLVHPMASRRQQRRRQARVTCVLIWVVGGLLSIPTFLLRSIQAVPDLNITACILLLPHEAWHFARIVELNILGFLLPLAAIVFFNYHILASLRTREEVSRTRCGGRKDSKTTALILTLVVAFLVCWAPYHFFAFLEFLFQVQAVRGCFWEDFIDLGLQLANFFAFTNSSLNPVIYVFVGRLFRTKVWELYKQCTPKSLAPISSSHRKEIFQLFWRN
Nature of the experiment: Functional assay at bradykinin receptor 1 (B1R): Ca2+ fluorescence (Fluo-4) in FLIPR/Novostar, antagonist mode. Type of experiment: cell-based. Conditions: test substance 10 µM; CHO K1 cells stably transfected with human B1R gene (hB1R-Zellen); agonist Lys-Des-Arg9-Bradykinin at EC80; % inhibition relative to maximal achievable inhibition; read-out: % Inhibierung (human B1R) bei 10 µM. As to the method:
Die agonistische bzw. antagonistische Wirkung von Substanzen kann am Bradykinin Rezeptor 1 (B1R) der Spezies Mensch und Ratte mit ektopisch exprimierenden Zelllinien (CHO K1 Zellen) und mit Hilfe eines Ca^2+-sensitiven Farbstoffs (Fluo-4) im Fluorescent Imaging Plate Reader (FLIPR) quantifiziert werden. Die Angabe in % Aktivierung wird bezogen auf das Ca^2+-Signal nach Zugabe von Lys-Des-Arg^9-Bradykinin ([…]), bzw. Des-Arg^9-Bradykinin (100 nM). Antagonisten führen zu einer Unterdrückung des Ca^2+-Einstroms nach der Zugabe des Agonisten. Angegeben werden % Inhibition im Vergleich zu der maximal erreichbaren Inhibition.
Die agonistische bzw. antagonistische Wirkung von Substanzen kann am Bradykinin Rezeptor 1 (B1R) der Spezies Mensch und Ratte mit folgendem Assay bestimmt werden. Gemäß diesem Assay wird der intrazelluläre Ca^2+-Anstieg nach Gabe eines B1 R Agonisten mit Hilfe eines Ca^2+-sensitiven Farbstoffs (Typ Fluo-4, Molecular Probes Europe BV, Leiden NL) im Fluorescent Imaging Plate Reader (FLIPR, Molecular Devices, Sunnyvale, USA) und/oder im Novostar (BMG Labtech GmbH, Offenburg, DE) quantifiziert.
Es werden Chinese Hamster Ovary Zellen (CHO K1 Zellen) verwendet, die stabil mit dem humanen B1 R-Gen (hB1R-Zellen) bzw. dem B1 R-Gen der Ratte (rB1R-Zellen) transfiziert sind. Für funktionelle Untersuchungen werden diese Zellen auf schwarze 96-Loch-Platten mit klarem Boden (BD Biosciences, Heidelberg, DE oder Greiner, Frickenhausen, DE) in einer Dichte von 20.000 - 35.000 Zellen/Loch ausplattiert. Über Nacht werden die Zellen bei 37°C und 5 % CO2 in Kulturmedium (hB1 R-Zellen: Nutrient Mixture Ham's F12, Gibco Invitrogen GmbH, Karlsruhe, Deutschland oder DMEM, Sigma-Aldrich, Taufkirchen, Deutschland; rB1R-Zellen: D-MEM/F12, Gibco Invitrogen GmbH, Karlsruhe, DE) mit 10 Vol-% FBS (Fetal bovine serum, Gibco Invitrogen GmbH, Karlsruhe, DE oder PAN Biotech GmbH, Aidenbach, DE) belassen. Am folgenden Tag werden die Zellen mit 2,13 µM Fluo-4 (Molecular Probes Europe BV, Leiden, NL) in HBSS-Puffer (Hank's buffered saline solution, Gibco Invitrogen GmbH, Karlsruhe, DE) mit 2,5 mM Probenecid (Sigma-Aldrich, Taufkirchen, DE) und 10 mM HEPES (Sigma-Aldrich, Taufkirchen, DE) für 60 min bei 37°C beladen. Anschließend werden die Platten 2 x mit HBSS-Puffer gewaschen und mit HBSS-Puffer versetzt, der zusätzlich 0,1 % BSA (bovines Serumalbumin; Sigma-Aldrich, Taufkirchen, Deutschland), 5,6 mM Glucose und 0,05 % Gelatine (Merck KGaA, Darmstadt, DE) enthält. Nach einer weiteren Inkubation von 20 Minuten bei RT werden die Platten zur Ca^2+-Messung im FLIPR oder Novostar eingesetzt. Alternativ wird mit Puffer A (15 mM HEPES, 80 mM NaCl, 5 mM KCI, 1,2 mM CaCl2, 0,7 mM MgSO4, 2g/L Glucose, 2,5 mM Probenecid) gewaschen und mit Puffer A versetzt mit 2,5 µM Fluo-4 und 0,025 % Pluronic F127 (Sigma-Aldrich, Taufkirchen, DE) beladen. Danach werden die Zellen 2 x mit Puffer A gewaschen und für 30 Minuten mit Puffer A, der zusätzlich 0,05 % BSA und 0,05 % Gelatine enthält bei RT inkubiert und danach zur Ca^2+-Messung im FLIPR oder Novostar eingesetzt.
Die Ca^2+-abhängige Fluoreszenz wird dabei vor und nach Zugabe von Substanzen gemessen (λex = 488 nm, λem = 540 nm). Die Quantifizierung erfolgt durch die Messung der höchsten Fluoreszenzintensität (FC, Fluorescence Counts) über die Zeit.
Das FLIPR-Protokoll besteht aus 2 Substanzzugaben, die im FLIPR pipettiert werden. Bei Messungen im Novostar wird nur die zweite Substanzzugabe im Gerät pipettiert. Beide Geräte messen die Fluoreszenzintensität über die Zeit. Zunächst werden Testsubstanzen (10 µM) auf die Zellen pipettiert und der intrazelluläre Ca^2+-Anstieg mit der Kontrolle (hB1 R: Lys-Des-Arg^9-Bradykinin >= 50 nM; rB1 R: Des-Arg^9-Bradykinin >= 1 µM) verglichen. Daraus ergibt sich die Angabe in % Aktivierung bezogen auf das Ca^2+-Signal nach Zugabe von Lys-Des-Arg^9-Bradykinin (>= 50 nM), bzw. Des-Arg^9-Bradykinin (>=1 µM). Nach 6-20 Minuten Inkubation werden Lys-Des-Arg^9-Bradykinin (hB1 R) bzw. […]

For `Cc1cc(S(=O)(=O)Cc2noc(CC(=O)NC3CCC(N4CCN(C)CC4)CC3(C)C)n2)c(C)cc1Cl` (stereo not shown) [CC-45, 2-[3-[[(4-Chlor-2,5-dimethyl-phenyl)sulfonyl]-methyl]-[1,2,4]oxadiazol-5-yl]-N-[2,2-dimethyl-4-(4-methyl-piperazin-1-yl)-cyclohexyl]-acetamid], the inhibition at 10 µM came to 100%.
The result for `CC(=O)N1CCC(NC(=O)Cc2nc(CS(=O)(=O)c3cc(C)c(Cl)cc3C)no2)C(C)(C)C1` (stereo not shown) [CC-46, N-(1-Acetyl-3,3-dimethyl-piperidin-4-yl)-2-[3-[[(4-chlor-2,5-dimethyl-phenyl)sulfonyl]-methyl]-[1,2,4]oxadiazol-5-yl]-acetamid] reads 64%; that for `CC(=O)N1CCC(NC(=O)Cc2nc(CS(=O)(=O)c3cccc(Cl)c3Cl)no2)C(C)(C)C1` (stereo not shown) [CC-47, N-(1-Acetyl-3,3-dimethyl-piperidin-4-yl)-2-[3-[[(2,3-dichlor-phenyl)sulfonyl]-methyl]-[1,2,4]oxa-diazol-5-yl]-acetamid], 62%; that for `CN1CCN(C2CCC(NC(=O)Cc3nc(CS(=O)(=O)c4cccc(Cl)c4Cl)no3)C(C)(C)C2)CC1` (stereo not shown) [CC-48, 2-[3-[[(2,3-Dichlor-phenyl)sulfonyl]-methyl]-[1,2,4]oxadiazol-5-yl]-N-[2,2-dimethyl-4-(4-methyl-piperazin-1-yl)-cyclohexyl]-acetamid], 81%.
`CN(C)C1CCC(NC(=O)Cc2nc(CS(=O)(=O)c3ccc(Cl)c(Cl)c3)no2)CC1` (stereo not shown) [CC-50, 2-[3-[[(3,4-Dichlorphenyl)sulfonyl]-methyl]-[1,2,4]oxadiazol-5-yl]-N-(4-dimethylamino-cyclohexyl)-acetamid]: the inhibition at 10 µM was determined as 54%.
The result for `COc1cc(C)c(S(=O)(=O)Cc2nc(CC(=O)NC3CCNCC3(C)C)no2)c(C)c1` (stereo not shown) [CC-52, N-(3,3-Dimethyl-piperidin-4-yl)-2-[5-[[(4-methoxy-2,6-dimethyl-phenyl)sulfonyl]-methyl]-[1,2,4]oxa-diazol-3-yl]-acetamid] reads 100%.
The result for `CC1(C)CC(N2CCCC2)CCC1NC(=O)Cc1nc(CS(=O)(=O)c2ccc(Cl)c(Cl)c2)no1` (stereo not shown) [CC-53, 2-[3-[[(3,4-Dichlorphenyl)sulfonyl]-methyl]-[1,2,4]oxadiazol-5-yl]-N-(2,2-dimethyl-4-pyrrolidin-1-yl-cyclohexyl)-acetamid] reads 100%; that for `O=C(Cc1nc(CS(=O)(=O)c2cccc(Cl)c2Cl)no1)NC1CCNCC1` [CC-54, 2-[3-[[(2,3-Dichlor-phenyl)sulfonyl]-methyl]-[1,2,4]oxadiazol-5-yl]-N-piperidin-4-yl-acetamid], 52%; that for `Cc1cc(S(=O)(=O)Cc2noc(CC(=O)NC3CCC(NC4CC4)CC3(C)C)n2)c(C)cc1Cl` (stereo not shown) [CC-57, 2-[3-[[(4-Chlor-2,5-dimethyl-phenyl)sulfonyl]-methyl]-[1,2,4]oxadiazol-5-yl]-N-[4-(cyclopropyl-amino)-2,2-dimethyl-cyclohexyl]-acetamid], 100%.
On to `CN(C)C1CCC(NC(=O)Cc2nc(CS(=O)(=O)c3cccc(Cl)c3Cl)no2)CC1` (stereo not shown) [CC-59, 2-[3-[[(2,3-Dichlor-phenyl)sulfonyl]-methyl]-[1,2,4]oxadiazol-5-yl]-N-(4-dimethylamino-cyclohexyl)-acetamid], for which the inhibition at 10 µM was determined as 63%.
Take `Cc1cc(S(=O)(=O)Cc2noc(CC(=O)NC3CCNCC3(C)C)n2)c(C)cc1Cl` (stereo not shown) [CC-62, 2-[3-[[(4-Chlor-2,5-dimethyl-phenyl)sulfonyl]-methyl]-[1,2,4]oxadiazol-5-yl]-N-(3,3-dimethyl-piperidin-4-yl)-acetamid]: the inhibition at 10 µM came out at 54%.
In the case of `COc1cc(C)c(S(=O)(=O)Cc2nnc(CC(=O)NC3CCN(C(C)=O)CC3(C)C)o2)c(C)c1` (stereo not shown) [CC-69, N-(1-Acetyl-3,3-dimethyl-piperidin-4-yl)-2-[5-[[(4-methoxy-2,6-dimethyl-phenyl)sulfonyl]-methyl]-[1,3,4]oxadiazol-2-yl]-acetamid], the inhibition at 10 µM amounted to 81%.
The result for `Cc1cc(S(=O)(=O)Cc2noc(CC(=O)NC3CCC(N4CCCC4)CC3)n2)c(C)cc1Cl` (stereo not shown) [CC-70, 2-[3-[[(4-Chlor-2,5-dimethyl-phenyl)sulfonyl]-methyl]-[1,2,4]oxadiazol-5-yl]-N-(4-pyrrolidin-1-yl-cyclohexyl)-acetamid] reads 93%; that for `O=C(Cc1nc(CS(=O)(=O)c2cccc(Cl)c2Cl)no1)NC1CCC(N2CCCC2)CC1` (stereo not shown) [CC-71, 2-[3-[[(2,3-Dichlor-phenyl)sulfonyl]-methyl]-[1,2,4]oxadiazol-5-yl]-N-(4-pyrrolidin-1-yl-cyclohexyl)-acetamid], 73%.
Turning to `COCCN1CCC(NC(=O)Cc2nc(CS(=O)(=O)c3cccc(Cl)c3Cl)no2)C(C)(C)C1` (stereo not shown) [CC-72, 2-[3-[[(2,3-Dichlor-phenyl)sulfonyl]-methyl]-[1,2,4]oxadiazol-5-yl]-N-[1-(2-methoxy-ethyl)-3,3-di-methyl-piperidin-4-yl]-acetamid], the inhibition at 10 µM was 60%.
The result for `COCCN1CCC(NC(=O)Cc2nc(CS(=O)(=O)c3cc(C)c(Cl)cc3C)no2)C(C)(C)C1` (stereo not shown) [CC-77, 2-[3-[[(4-Chlor-2,5-dimethyl-phenyl)sulfonyl]-methyl]-[1,2,4]oxadiazol-5-yl]-N-[1-(2-methoxy-ethyl)-3,3-dimethyl-piperidin-4-yl]-acetamid] reads 80%.
For the compound `Cc1cc(S(=O)(=O)Cc2noc(CC(=O)NC3CCC(c4ccncc4)CC3(C)C)n2)c(C)cc1Cl` (stereo not shown) [CC-80, 2-[3-[[(4-Chlor-2,5-dimethyl-phenyl)sulfonyl]-methyl]-[1,2,4]oxadiazol-5-yl]-N-(2,2-dimethyl-4-pyridin-4-yl-cyclohexyl)-acetamid], the inhibition at 10 µM turned out to be 99%.
As for `Cc1cc(S(=O)(=O)Cc2noc(CC(=O)NC3CCC(N(C)C)CC3)n2)c(C)cc1Cl` (stereo not shown) [CC-81, 2-[3-[[(4-Chlor-2,5-dimethyl-phenyl)sulfonyl]-methyl]-[1,2,4]oxadiazol-5-yl]-N-(4-dimethylamino-cyclohexyl)-acetamid], the inhibition at 10 µM was found to be 79%.
As for `COc1cc(C)c(S(=O)(=O)Cc2nnc(CC(=O)NC3CCC(N4CCN(C)CC4)CC3(C)C)o2)c(C)c1` (stereo not shown) [CC-86, N-[2,2-Dimethyl-4-(4-methyl-piperazin-1-yl)-cyclohexyl]-2-[5-[[(4-methoxy-2,6-dimethylphenyl)sulfonyl)-methyl]-[1,3,4]oxadiazol-2-yl]-acetamid], the inhibition at 10 µM is 100%.

The values above are taken from EP2857388A1, “Azoles containing sulfone” (Grünenthal GmbH, priority 2013, dated 2015).
